# Experimental data reported in article PMC4869360, “An allosteric role for receptor activity-modifying proteins in defining GPCR pharmacology” (Cell Discovery, 2016).
# Where no end group is shown, it is not given here.
# What was measured:
# [1] = Ala scan of an amylin analogue; cited from earlier work
# Text: Of the residues impacting on peptide function only R126 contributed to amylin or CGRP function but not that of CT. R126 in the CTR/RAMP complex sits in close proximity to W84 (RAMP1) that may form an interaction with the peptide C-terminus for amylin and CGRP, and thus may contribute to the orientation of the peptide C-terminus to allow this interaction. The net contribution of the RAMP interaction is a reordering of residues in loop 5 that facilitates the peptide turn of amylin and CGRP and interaction of the C-terminus with the W84 of the RAMP, with reorientation of loop 4 residues facilitat ...
# [2] = system: CT(a) receptor ECD alanine mutants; experiment: 125I-hCT radioligand binding, CT(a) mutants; set-up: species or system human; settings: Ala mutation of W79, F99, D101, F102, H121, W128 and Y131; ~50 pM, 1 h, 37 °C, whole Cos-7 cells
# Text: transfected with CT(a). […] Data are
# binding observed for each peptide.
# For C, D and E statistical
Substance,binding [1],125I-hCT binding [2]
"V32: amylin analogue with V32 substitution, from Ala scan of ref 34 (KCNTATCATQRLANFLVHSSNNFGAILSSTNAGSNTY; ends and bridges not checked; cysteine pairing not given here; UniProt P10997 34-70, looked up, variant V32A)",abolishing binding,
"^125I-hCT: hCT radioiodinated with iodination bead, purified by reverse-phase HPLC",,significantly reduced
"T30: amylin analogue with T30 substitution, from Ala scan of ref 34 (KCNTATCATQRLANFLVHSSNNFGAILSSANVGSNTY; ends and bridges not checked; cysteine pairing not given here; UniProt P10997 34-70, looked up, variant T30A)",abolishing binding,
